Consider 41 compounds from patent US11485708B2, “Compounds for treatment of PD-L1 diseases” (CHEMOCENTRYX, INC., priority 2019, dated 2022).

human PD-L1 / Human PD-1, sequence (Q9NZQ7 19-239): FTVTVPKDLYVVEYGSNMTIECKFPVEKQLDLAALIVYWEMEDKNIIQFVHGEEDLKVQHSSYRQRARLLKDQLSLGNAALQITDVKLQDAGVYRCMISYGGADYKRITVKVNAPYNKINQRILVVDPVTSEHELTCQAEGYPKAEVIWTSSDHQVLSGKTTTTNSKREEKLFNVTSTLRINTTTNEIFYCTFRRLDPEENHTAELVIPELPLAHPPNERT

This assay addresses human PD-L1 / Human PD-1 (Homo sapiens (Human), UniProt Q9NZQ7). Nature of the assay: Enzyme-Linked Immunosorbent Assay (ELISA), PD-1/PD-L1 binding. The settings on record: plates coated with human PD-L1, biotinylated human PD-1 added. On the procedure: 96 Well plates were coated with 1 μg/mL of human PD-L1 (obtained from R&D) in PBS overnight at 4′° C. The wells were then blocked with 2% BSA in PBS (W/V) with 0.05% TWEEN-20 for 1 hour at 37′° C. The plates were washed 3 times with PBS/0.05% TWEEN-20 and the compounds were serial diluted (1:5) in dilution medium and added to the ELISA plates. Human PD-1 and biotin 0.3 μg/mL (ACRO Biosystems) were added and incubated for 1 hour at 37° C. then washed 3 times with PBS/0.05% TWEEN-20. A second block was performed with 2% BSA in PBS (WNV)/0.05% TWEEN-20 for 10 min at 37° C. and the plates were washed 3 times with PBS/0.05% TWEEN-20. Streptavidin-HIRP was added for 1 hour at 37° C. then the plates were washed 3 times with PBS/0.05% TWEEN-20. TMB substrate was added and reacted for 20 min at 37° C. A stop solution (2 N aqueous H2SO4) was added. The absorbance was read at 450 nm using a micro-plate spectrophotometer.
Regarding `CCOC(=O)CN1CCc2cc(-c3cccc(-c4cccc(OCCCN5[C@H](C)CC[C@H]5C)c4C)c3C)ccc2C1` [Compd 1.106], the IC50 is 1 to 10 µM.

For the compound `COc1cc(-c2cccc(-c3cccc(-c4cc(F)c(CN(C)C)c(OC)c4)c3C)c2C)cc(F)c1CNCCO` [Compd 1.050, 2-(((4′″-((dimethylamino)methyl)-3,3′″-difluoro-5,5′″-dimethoxy-2′,2″-dimethyl-[1,1′:3′,1″:3″,1′″-quaterphenyl]-4-yl)methyl)amino)ethan-1-ol], the IC50 is < 1 µM. The result for `COc1cc(-c2cccc(-c3cccc(NC4CCNCC4)c3C)c2C)cc(F)c1CN` [Compd 1.003, N-(4″-(aminomethyl)-3″-fluoro-5″-methoxy-2,2′-dimethyl-[1,1′:3′,1″-terphenyl]-3-yl)piperidin-4-amine] reads < 1 µM. In the case of `CCOc1cc(-c2cccc(-c3cccc(OCCCN4[C@H](C)CC[C@H]4C)c3C)c2C)ccc1CN(C)C` [Compd 1.075] it was < 1 µM; in that of `COc1cc(-c2cccc(-c3cccc(OCCCN4CCC(F)CC4)c3C)c2C)ccc1CN(C)C` [Compd 1.094], < 1 µM.

With `CNCc1c(F)cc(-c2cccc(-c3cccc(-c4cc(F)c(CNC)c(OC)c4)c3C)c2C)cc1OC` [Compd 1.053], the IC50 is < 1 µM.

`Cc1c(OCCCN2CCC(F)CC2)cccc1-c1cccc(-c2ccc(CN)cc2)c1C` [Compd 1.077]: the IC50 was < 1 µM. The result for `Cc1c(-c2ccc3c(c2)CCNC3)cccc1-c1cccc(OCCCN2[C@H](C)CC[C@H]2C)c1Cl` [Compd 1.092] reads < 1 µM; that for `Cc1c(OCCCN2CCCC2(C)C)cccc1-c1cccc(-c2ccc3c(c2)CCNC3)c1C` [Compd 1.105], < 1 µM; that for `Cc1c(OCCCN2CCC(F)CC2)cccc1-c1cccc(-c2ccc3c(c2C)CCNC3)c1C` [Compd 1.087], 1 to 10 µM. The result for `COc1cc(-c2cccc(-c3cccc(-c4cc(F)c(CNCCCC(=O)O)c(OC)c4)c3C)c2C)cc(F)c1CNCCCC(=O)O` [Compd 1.063, 4,4′-(((3,3′″-difluoro-5,5′″-dimethoxy-2′,2″-dimethyl-[1,1′:3′,1″:3″,1′″-quaterphenyl]-4,4′″-diyl)bis(methylene))bis(azanediyl))dibutyric acid] reads < 1 µM; that for `COc1cc(CNCCCC(=O)O)cc(-c2cccc(-c3cccc(OCCCN4[C@H](C)CC[C@H]4C)c3C)c2C)c1` [Compd 1.065], 1 to 10 µM. In the case of `Cc1c(OCCCN2CCC(F)CC2)cccc1-c1cccc(-c2ccc(CN(C)C)cc2Cl)c1C` [Compd 1.095] it was 1 to 10 µM; in that of `COc1cc(-c2cccc(-c3cccc(-c4ccc(CN)c(F)c4)c3C)c2C)cc(F)c1CN` [Compd 1.037], < 1 µM. `C=Cc1c(-c2ccc3c(c2)CCNC3)cccc1-c1cccc(OCCCN2CCC2(C)C)c1C` [Compd 1.076, 6-(3′-(3-(2,2-dimethylazetidin-1-yl)propoxy)-2′-methyl-2-vinyl-[1,1′-biphenyl]-3-yl)-1,2,3,4-tetrahydroisoquinoline]: the IC50 is < 1 µM. Turning to `Cc1c(OCCCN2[C@H](C)CC[C@H]2C)cccc1-c1cccc(-c2ccc3c(c2)CCNC3)c1C` [Compd 1.114], the IC50 was < 1 µM. The result for `Cc1c(OCCCN2[C@H](C)CC[C@H]2C)cccc1-c1cccc(-c2ccc(CNCCC(=O)O)cc2)c1C` [Compd 1.097] reads < 1 µM. The result for `COc1cc(-c2cccc(-c3cccc(-c4cc(F)c(CN[C@@H]5CCC[C@@H]5O)c(OC)c4)c3C)c2C)cc(F)c1CN[C@@H]1CCC[C@@H]1O` [Compd 1.046] reads < 1 µM; that for `COc1cccc(-c2cccc(-c3ccc4c(c3)CCNC4)c2C)c1C` [Compd 1.115, 6-(3′-methoxy-2,2′-dimethyl-[1,1′-biphenyl]-3-yl)-1,2,3,4-tetrahydroisoquinoline], 1 to 10 µM; that for `Cc1c(OCCCN2[C@H](C)CC[C@H]2C)cccc1-c1cccc(-c2ccc3c(c2)CCN(CCO)C3)c1C` [Compd 1.107], < 1 µM. Take `COc1cc(-c2cccc(-c3cccc(-c4cc(F)c(CNCCCO)c(OC)c4)c3C)c2C)cc(F)c1CNCCCO` [Compd 1.056]: the IC50 was < 1 µM.

Consider `COc1cc(-c2cccc(-c3cccc(-c4cc(F)c(CNCCCCO)c(OC)c4)c3C)c2C)cc(F)c1CNCCCCO` [Compd 1.049], for which the IC50 was < 1 µM. In the case of `Cc1c(OCCCN2[C@H](C)CC[C@H]2C)cccc1-c1cccc(-c2ccc(CCN)cc2)c1C` [Compd 1.118] it was < 1 µM; in that of `COc1cc(-c2cccc(-c3cccc4c3CCNC4)c2C)cc(F)c1CN` [Compd 1.022], 1 to 10 µM; in that of `Cc1c(OCCCN2CCC(O)CC2)cccc1-c1cccc(-c2ccc3c(c2)CCNC3)c1C` [Compd 1.111], < 1 µM. In the case of `Cc1c(OCCCN2CCC(F)CC2)cccc1-c1cccc(-c2ccc(CN(C)C)c(C(F)(F)F)c2)c1C` [Compd 1.084] it was 1 to 10 µM. In the case of `Cc1c(OCCCN2[C@H](C)CC[C@H]2C)cccc1-c1cccc(-c2ccc(CNCCCC(=O)O)cc2)c1C` [Compd 1.100] it was < 1 µM. For the compound `COc1cc(-c2cccc(-c3cccc(CCN)c3C)c2C)cc(F)c1CN` [Compd 1.023], the IC50 fell in the range of 1 to 10 µM. `COc1ccc(-c2cccc(-c3cc(F)c(CN)c(OC)c3)c2C)cc1F` [Compd 1.025] showed an IC50 of 1 to 10 µM. On to `Cc1c(-c2ccc3c(c2)CCNC3)cccc1-c1cccc(-c2ccc3c(c2)CCNC3)c1C` [Compd 1.042], for which the IC50 is < 1 µM.

On to `COc1cc(-c2cccc(-c3cccc(-c4cc(F)c(CN(C)C)c(OC)c4)c3C)c2C)cc(F)c1CN(C)C` [Compd 1.059], for which the IC50 is < 1 µM. In the case of `Cc1c(OCCCN2[C@H](C)CC[C@H]2C)cccc1-c1cccc(-c2ccc([C@@H](C)N)cc2)c1C` [Compd 1.099] it was < 1 µM. In the case of `COc1cc(-c2cccc(-c3cccc(-c4cc(F)c(CNC(C)C)c(OC)c4)c3C)c2C)cc(F)c1CNC(C)C` [Compd 1.048] it was < 1 µM.

In the case of `Cc1cc(-c2cccc(-c3cccc(OCCCN4CCC(F)CC4)c3C)c2C)ccc1CN(C)C` [Compd 1.083], the IC50 is < 1 µM. The compound `COc1cc(-c2cccc(-c3cccc(OCCCN4CCC(F)CC4)c3C)c2C)cc(OC)c1CN(C)C` [Compd 1.079] came in with an IC50 of 1 to 10 µM. The result for `COC(=O)CCCN(C)Cc1c(F)cc(-c2cccc(-c3cccc(-c4cc(F)c(CN(C)CCCC(=O)OC)c(OC)c4)c3C)c2C)cc1OC` [Compd 1.057] reads < 1 µM.

Consider `COc1cc(-c2cccc(-c3cccc(OCCCN4[C@H](C)CC[C@H]4C)c3C)c2C)cc2c1CNCC2` [Compd 1.060], for which the IC50 is < 1 µM.

Turning to `Cc1c(-c2ccc3c(c2)CCNC3)cccc1-c1cccc(OCCCN2[C@H](C)CC[C@H]2C)c1F` [Compd 1.091], the IC50 is < 1 µM.

The compound `Cc1c(OCCCN2CCC2(C)C)cccc1-c1cccc(-c2ccc3c(c2)CCNC3)c1` [Compd 1.103, 6-(3′-(3-(2,2-dimethylazetidin-1-yl)propoxy)-2′-methyl-[1,1′-biphenyl]-3-yl)-1,2,3,4-tetrahydroisoquinoline] yielded an IC50 of 1 to 10 µM.

In the case of `Cc1c(OCCCN2CC3(CC(O)C3)C2)cccc1-c1cccc(-c2ccc3c(c2)CCNC3)c1C` [Compd 1.109], the IC50 was < 1 µM. The result for `Cc1c(OCCCN2[C@H](C)CC[C@H]2C)cccc1-c1cccc(-c2ccc3c(c2)CC(CO)NC3)c1C` (some centres unmarked) [Compd 1.069] reads < 1 µM.
